The data set can be described thus: Single oral (PO) dose pharmacokinetics study in rats; plasma concentration of MDMA (and prodrug) by LC-MS/MS. Particulars: male SD rats.
Setting [1] is: 0.50 h after oral dosing of prodrug 10 mg/Kg.
Where [2] appears, read: 1.00 h after oral dosing of prodrug 10 mg/Kg.
[3] abbreviates: 2.00 h after oral dosing of prodrug 10 mg/Kg.
The mark [4] stands for this setting: 4.00 h after oral dosing of prodrug 10 mg/Kg.
Setting [5] is: 7.00 h after oral dosing of prodrug 10 mg/Kg.
[6] abbreviates: 24.0 h after oral dosing of prodrug 10 mg/Kg.

The record followed here is patent US20240317724A1, “3,4-METHYLENEDIOXYMETHAMPHETAMINE AND RELATED PS[…] USES THEREOF” (Terran Biosciences Inc., priority 2021, published 2024).

Regarding `CC(Cc1ccc2c(c1)OCO2)N(C)C(=O)N(C)C` (stereo not shown) [Dimethylurea prodrug of MDMA, 1-[2-(2H-1,3-Benzodioxol-5-yl)-1-methyl-ethyl]-1,3,3-trimethylurea], the “Mean plasma concentration of metabolite MDMA” value (“Mean plasma concentration” below) is on record as “BLQ (BLQ: Below Lower Limit of Quantification (0.5 ng/mL))” under setting [1]; “BLQ (BLQ: Below Lower Limit of Quantification (0.5 ng/mL))” under setting [2]; “BLQ (BLQ: Below Lower Limit of Quantification (0.5 ng/mL))” under setting [3]; “BLQ (BLQ: Below Lower Limit of Quantification (0.5 ng/mL))” under setting [4]; “BLQ (BLQ: Below Lower Limit of Quantification (0.5 ng/mL))” under setting [5]; “BLQ (BLQ: Below Lower Limit of Quantification (0.5 ng/mL))” under setting [6].

`CC(=O)N(C)C(C)Cc1ccc2c(c1)OCO2` (stereo not shown) [Methyl amide (acetyl) prodrug of MDMA, N-[2-(2H-1,3-Benzodioxol-5-yl)-1-methyl-ethyl]-N-methylacetamide]: the “Mean plasma concentration” value was “BLQ (BLQ: Below Lower Limit of Quantification (0.5 ng/mL))” under setting [1]; “BLQ (BLQ: Below Lower Limit of Quantification (0.5 ng/mL))” under setting [2]; “BLQ (BLQ: Below Lower Limit of Quantification (0.5 ng/mL))” under setting [3]; “BLQ (BLQ: Below Lower Limit of Quantification (0.5 ng/mL))” under setting [4]; “BLQ (BLQ: Below Lower Limit of Quantification (0.5 ng/mL))” under setting [5]; “BLQ (BLQ: Below Lower Limit of Quantification (0.5 ng/mL))” under setting [6].

As to `CC(C)[C@H](N)C(=O)N(C)C(C)Cc1ccc2c(c1)OCO2` (stereo partly drawn) [Valine prodrug of MDMA, (2S)-2-amino-N-[2-(1,3-benzodioxol-5-yl)-1-methyl-ethyl]-N,3-dimethyl-butanamide], the “Mean plasma concentration” value is reported as “BLQ (BLQ: Below Lower Limit of Quantification (0.5 ng/mL))” under setting [1]; “BLQ (BLQ: Below Lower Limit of Quantification (0.5 ng/mL))” under setting [2]; “BLQ (BLQ: Below Lower Limit of Quantification (0.5 ng/mL))” under setting [3]; “BLQ (BLQ: Below Lower Limit of Quantification (0.5 ng/mL))” under setting [4]; “BLQ (BLQ: Below Lower Limit of Quantification (0.5 ng/mL))” under setting [5]; “BLQ (BLQ: Below Lower Limit of Quantification (0.5 ng/mL))” under setting [6].

Regarding `CC(Cc1ccc2c(c1)OCO2)N(C)C(=O)CN(C)C(=O)[C@@H](N)Cc1ccccc1` (stereo partly drawn) [SarcPhe prodrug of MDMA, (2S)-2-amino-N-[2-[[2-(1,3-benzodioxol-5-yl)-1-methyl-ethyl]-methyl-amino]-2-oxo-ethyl]-N-methyl-3-phenyl-propanamide], the “Mean plasma concentration” value under setting [1] is on record as “BLQ (BLQ: Below Lower Limit of Quantification (0.5 ng/mL))”; the “Mean plasma concentration” value under setting [2] is listed as “BLQ (BLQ: Below Lower Limit of Quantification (0.5 ng/mL))”; the “Mean plasma concentration” value under setting [3] is “BLQ (BLQ: Below Lower Limit of Quantification (0.5 ng/mL))”; the “Mean plasma concentration” value under setting [4] is on record as “BLQ (BLQ: Below Lower Limit of Quantification (0.5 ng/mL))”; the “Mean plasma concentration” value under setting [5] was “BLQ (BLQ: Below Lower Limit of Quantification (0.5 ng/mL))”; the “Mean plasma concentration” value under setting [6] is on record as “BLQ (BLQ: Below Lower Limit of Quantification (0.5 ng/mL))”.

For the compound `CC(Cc1ccc2c(c1)OCO2)N(C)C(=O)C(C)(C)C` (stereo not shown) [Tert-butyl amide prodrug of MDMA, N-[2-(2H-1,3-Benzodioxol-5-yl)-1-methyl-ethyl]-N-methyl-2,2-dimethylpropionamide], the “Mean plasma concentration” value was “BLQ (BLQ: Below Lower Limit of Quantification (0.5 ng/mL))” under setting [1]; “BLQ (BLQ: Below Lower Limit of Quantification (0.5 ng/mL))” under setting [2]; “BLQ (BLQ: Below Lower Limit of Quantification (0.5 ng/mL))” under setting [3]; “BLQ (BLQ: Below Lower Limit of Quantification (0.5 ng/mL))” under setting [4]; “BLQ (BLQ: Below Lower Limit of Quantification (0.5 ng/mL))” under setting [5]; “BLQ (BLQ: Below Lower Limit of Quantification (0.5 ng/mL))” under setting [6].

`CC(Cc1ccc2c(c1)OCO2)N(C)C(=O)C1(C)CCOCC1` (stereo not shown) [N-[2-(2H-1,3-Benzodioxol-5-yl)-1-methylethyl]-N-methyl-4-methyltetrahydro-2H-pyran-4-carboxamide]: the “Mean plasma concentration” value under setting [1] is on record as “BLQ (BLQ: Below Lower Limit of Quantification (0.5 ng/mL))”; the “Mean plasma concentration” value under setting [2] is reported as “BLQ (BLQ: Below Lower Limit of Quantification (0.5 ng/mL))”; the “Mean plasma concentration” value under setting [3] was “BLQ (BLQ: Below Lower Limit of Quantification (0.5 ng/mL))”; the “Mean plasma concentration” value under setting [4] was “BLQ (BLQ: Below Lower Limit of Quantification (0.5 ng/mL))”; the “Mean plasma concentration” value under setting [5] is “BLQ (BLQ: Below Lower Limit of Quantification (0.5 ng/mL))”; the “Mean plasma concentration” value under setting [6] was “BLQ (BLQ: Below Lower Limit of Quantification (0.5 ng/mL))”.

Turning to `CC(Cc1ccc2c(c1)OCO2)N(C)C(=O)C1CCOCC1` (stereo not shown) [Pyran amide prodrug of MDMA, N-[2-(2H-1,3-Benzodioxol-5-yl)-1-methyl-ethyl]-N-methyl-tetrahydro-2H-pyran-4-carboxamide], the “Mean plasma concentration” value under setting [1] is “BLQ (BLQ: Below Lower Limit of Quantification (0.5 ng/mL))”; the “Mean plasma concentration” value under setting [2] is given as “BLQ (BLQ: Below Lower Limit of Quantification (0.5 ng/mL))”; the “Mean plasma concentration” value under setting [3] is given as “BLQ (BLQ: Below Lower Limit of Quantification (0.5 ng/mL))”; the “Mean plasma concentration” value under setting [4] is listed as “BLQ (BLQ: Below Lower Limit of Quantification (0.5 ng/mL))”; the “Mean plasma concentration” value under setting [5] is listed as “BLQ (BLQ: Below Lower Limit of Quantification (0.5 ng/mL))”; the “Mean plasma concentration” value under setting [6] is given as “BLQ (BLQ: Below Lower Limit of Quantification (0.5 ng/mL))”.

For `CC(Cc1ccc2c(c1)OCO2)N(C)C(=O)C1CCOC1` (stereo not shown) [N-[2-(2H-1,3-Benzodioxol-5-yl)-1-methyl-ethyl]-N-methyl-tetrahydro-3-furamide], the “Mean plasma concentration” value is reported as “BLQ (BLQ: Below Lower Limit of Quantification (0.5 ng/mL))” under setting [1]; “BLQ (BLQ: Below Lower Limit of Quantification (0.5 ng/mL))” under setting [2]; “BLQ (BLQ: Below Lower Limit of Quantification (0.5 ng/mL))” under setting [3]; “BLQ (BLQ: Below Lower Limit of Quantification (0.5 ng/mL))” under setting [4]; “BLQ (BLQ: Below Lower Limit of Quantification (0.5 ng/mL))” under setting [5]; “BLQ (BLQ: Below Lower Limit of Quantification (0.5 ng/mL))” under setting [6].

On to `CC(Cc1ccc2c(c1)OCO2)N(C)C(=O)OCC(C)(C)COC(=O)C(C)(C)C` (stereo not shown) [[3-[[2-(1,3-Benzodioxol-5-yl)-1-methyl-ethyl]-methyl-carbamoyl]oxy-2,2-dimethyl-propyl] 2,2-dimethylpropanoate], for which the “Mean plasma concentration” value by setting is: under setting [1], “BLQ (BLQ: Below Lower Limit of Quantification (0.5 ng/mL))”; under setting [2], “BLQ (BLQ: Below Lower Limit of Quantification (0.5 ng/mL))”; under setting [3], “BLQ (BLQ: Below Lower Limit of Quantification (0.5 ng/mL))”; under setting [4], “BLQ (BLQ: Below Lower Limit of Quantification (0.5 ng/mL))”; under setting [5], “BLQ (BLQ: Below Lower Limit of Quantification (0.5 ng/mL))”; under setting [6], “BLQ (BLQ: Below Lower Limit of Quantification (0.5 ng/mL))”.

For `CC(Cc1ccc2c(c1)OCO2)N(C)C(=O)[C@@H](N)CCCCN` (stereo partly drawn) [Lysine prodrug of MDMA, (2S)-2,6-diamino-N-[2-(1,3-benzodioxol-5-yl)-1-methyl-ethyl]-N-methyl-hexanamide], the “Mean plasma concentration” value is “BLQ (BLQ: Below Lower Limit of Quantification (0.5 ng/mL))” under setting [1]; “BLQ (BLQ: Below Lower Limit of Quantification (0.5 ng/mL))” under setting [2]; “BLQ (BLQ: Below Lower Limit of Quantification (0.5 ng/mL))” under setting [3]; “BLQ (BLQ: Below Lower Limit of Quantification (0.5 ng/mL))” under setting [4]; “BLQ (BLQ: Below Lower Limit of Quantification (0.5 ng/mL))” under setting [5]; “BLQ (BLQ: Below Lower Limit of Quantification (0.5 ng/mL))” under setting [6]. In addition, the “Tlast of MDMA prodrug” value (oral dosing of prodrug 10 mg/Kg, analyte prodrug, mean) stood at 24.0 h.

Consider `CC(Cc1ccc2c(c1)OCO2)N(C)C(=O)OC(C)(C)C` (stereo not shown) [Tert-butyl carbamate prodrug of MDMA, tert-butyl N-[2-(1,3-benzodioxol-5-yl)-1-methyl-ethyl]-N-methyl-carbamate], for which the “Mean plasma concentration” value reads like this: under setting [1], “BLQ (BLQ: Below Lower Limit of Quantification (0.5 ng/mL))”; under setting [2], “BLQ (BLQ: Below Lower Limit of Quantification (0.5 ng/mL))”; under setting [3], “BLQ (BLQ: Below Lower Limit of Quantification (0.5 ng/mL))”; under setting [4], “BLQ (BLQ: Below Lower Limit of Quantification (0.5 ng/mL))”; under setting [5], “BLQ (BLQ: Below Lower Limit of Quantification (0.5 ng/mL))”; under setting [6], “BLQ (BLQ: Below Lower Limit of Quantification (0.5 ng/mL))”.
